Patent US20050070529A1, “Use of type 4 phosphodiesterase inhibitors in myocardial diseases” (Merk Pantent GmbH, priority 2001, published 2005)

Assays:
[1] = tested on: T cells within the PBMC preparation; assay: Effect of PDE4 inhibitors on T-cell proliferation (3H-thymidine incorporation, anti-CD3 stimulated PBMC); format: cell-based; conditions: Homo sapiens, 120 h, monoclonal antibody to CD3, 5 days, read-out: T-cell prol. IC50
Method: Peripheral blood mononuclear cells (PBMC) were isolated from the blood of healthy donors by the Lymphoprep gradient method. 200000 PBMC/well were cultured in RPMI1640 culture medium containing 5% heat inactivated human serum (AB pool) for 5 days at 37° C. and 10% CO2 in 96 well flat bottom microtiter plates. The T cells within the PBMC preparation were selectively stimulated with an monoclonal antibody to CD3. Cultures were set up as triplicates including a control group receiving no treatment. PDE4 inhibitors were dissolved in DMSO at 10^−2 M and diluted in culture medium. Control cultures were treated with DMSO equivalent to the inhibitor concentration. 18 hrs before the end of the assay, ^3H-thymidine was added to the cultures. The incorporation of radioactivity into the cells was then measured in a beta-counter.
The data of at least three independent experiments were calculated as percent inhibition of the control (mean ±SEM) without inhibitor.

IL-2 = IL-2 production in PBMC (ELISA); format: cell-based; conditions: Homo sapiens, activator mab anti-CD3, 24 h, read-out: IL2 T-cell IC50
Method: (§1) Peripheral blood mononuclear cells (PBMC) were isolated from the blood of healthy donors by the Lymphoprep gradient method. 200000 PBMC/well were cultured in RPMI1640 culture medium containing 5% heat inactivated human serum ([…]). at 37° C. and 10% CO2 in 96 well flat bottom microtiter plates. Cultures were set up as triplicates including a control group. Solutions of PDE4 inhibitors were prepared in DMSO at 10^−2 M and diluted in culture medium. Control cultures were treated with concentrations of DMSO equivalent to the inhibitor concentrations.
(§2) The culture supernatants of three independent experiments were pooled and cytokine activity in the supernatant was measured with commercially available ELISA test kits.
(§3) The data were calculated as percent inhibition/stimulation of the control without the compound and the IC50 value or EC50 value in case of stimulation was determined thereof.

IFN-γ = IFN-γ production in PBMC (ELISA); format: cell-based; conditions: Homo sapiens, activator mab anti-CD3, 48 h, read-out: IFN-γ T-cell IC50
Method: as §1, §2, §3

TNF-α = TNF-α production in PBMC (ELISA); format: cell-based; conditions: Homo sapiens, activator LPS, 48 h, read-out: TNF-α macrophage IC50
Method: as §1, §2, §3

IL-10 = IL-10 production in PBMC (ELISA); format: cell-based, human; conditions: activator LPS, 48 h, stimulation; for EC50: Homo sapiens, read-out: IL10 macrophage EC50
Method: as §1, §2, §3

IL-12 = IL-12 production in PBMC (ELISA); format: cell-based; conditions: Homo sapiens, activator SAC + IFNγ, 48 h, read-out: IL12 macrophage IC50
Method: as §1, §2, §3

| SMILES | IC50 [1] [nM] | IC50 (IL-2) [nM] | IC50 (IFN-γ) [nM] | IC50 (TNF-α) [nM] | EC50 (IL-10) [nM] | IC50 (IL-12) [nM] | IL10 macrophage EC50 (IL-10) |
| --- | --- | --- | --- | --- | --- | --- | --- |
| CCOC(=O)Nc1ccc(CN2N=C(c3ccc(OC)c(OCC)c3)CCC2=O)cc1 [EMD 94360] | 20 | 300 | 50 | 30 | 1 | 6 | – |
| CCOc1cc(C2=NN(Cc3ccc(NC(=O)c4cccnc4)cc3)C(=O)SC2)ccc1OC [EMD 95832] | 50 | 200 | 10 | 9 | 20 | 0.5 | – |
| CCOc1cc(C2=NN(C(=O)c3ccc(NC(=O)c4cccnc4)cc3)CCC2)ccc1OC [EMD 125025] | 6 | 2 | 7 | 3 | – | – | no effect |
| CCOC(=O)Nc1ccc(C(=O)N2CCCC(c3ccc(OC)c(OCC)c3)=N2)cc1 [EMD 125059] | 40 | 60 | 8 | 30 | 8 | – | – |
| CCOc1cc(C2=NN(C(=O)c3ccc(NC(=O)c4ccc(OC)cc4)cc3)CCC2)ccc1OC [EMD 219901] | 7 | 3 | 5 | 2 | 1 | – | – |
| COc1ccc(C2CNC(=O)C2)cc1OC1CCCC1 (stereo not drawn) [Rolipram, reference compound] | 300 | 700 | 1000 | 600 | 50 | > 100 | – |
